Experimental data: patent publication US20250152719A1, “FUSED IMIDE DERIVATIVE” (Chia Tai Tianqing Pharmaceutical Group Co., Ltd., priority 2021, published 2025)
Like-named read-outs stand apart in the source and are kept apart here.

Experiments:
BTK = BTK (Homo sapiens (Human), UniProt Q06187); experiment: BTK degradation in OCI-LY10 cells (Total-BTK HTRF kit); format: cell-based; conditions: 24 (or 6) h incubation; for DC50 / BTK degradation in OCI-LY10 cells Dmax: OCI-LY10 cells; for DC50: DC50 = concentration when degradation rate reaches 50%, read-out: OCI-LY10 cell BTK degradation DC50; for Dmax: OCI-Ly10, OCI-LY10 cells; for Dmax / BTK degradation in OCI-LY10 cells Dmax: maximum degradation rate
Protocol: The detection was carried out using the Total-BTK Kits (cisbio, 63ADK064PEH), and 4× Supplemented Lysis buffer was prepared using the Blocking reagent stock solution (100×) and Lysis buffer stock solution (4×). Premixed antibody solutions were prepared using the Detection buffer, Total-BTK d2 antibody, and Total-BTK Eu Cryptate antibody.
OCI-LY10 cells in a good growth state were collected and added to a centrifuge tube, adjusted to a cell density of 4.17×10^6 cells/mL, and seeded in a 384-well plate (12 μL/well). The cells were incubated overnight in a cell incubator. Compounds were added using a nanoliter pipettor such that the final concentrations of the compounds were 100 nM-0.098 nM; the addition was performed in duplicate, and meanwhile, a control was set. After another 24 (or 6) h of incubation in the cell incubator, the 4× Supplemented Lysis buffer was added at 4 μL/well to lyse the cells. After the cells were shaken for 40 min at room temperature, the Premixed antibody solutions were added at 4 μL/well, and the cells were left to stand overnight at room temperature. Fluorescence values of the cells were detected at 665 nm/620 nm using an Envision microplate reader, the four-parameter analysis was performed, the dose-response curves were fit, and DC50 (the concentration of the drug when the degradation rate reaches 50%) and Dmax (the maximum degradation rate) were calculated.

OCI-LY10 cells = experiment: Inhibitory activity on OCI-LY10 cell proliferation (CCK-8); format: cell-based
Protocol: (§1) OCI-LY10 cells in a good growth state were collected and added to a centrifuge tube, adjusted to a cell density of 1×10^5 cells/mL, and seeded in a 96-well plate (100 μL/well). The cells were incubated overnight in a cell incubator. Compounds were added using a nanoliter pipettor such that the final concentrations of the compounds were 5000 nM-0.31 nM; the addition was performed in duplicate, and meanwhile, a control was set. After another 72 h of incubation in the cell incubator, 10 μL of CCK-8 (CK04, PP799) was added. After 2.5 h of incubation in the cell incubator, absorbance values were detected at 450 nm using an Envision microplate reader, the four-parameter analysis was performed, the dose-response curves were fit, and IC50 was calculated.

TMD8-BTK(C481S) cells = experiment: Inhibitory activity on TMD8-BTK(C481S) cell proliferation (CCK-8); format: cell-based; conditions: 72 h incubation
Protocol: as §1, with “TMD8-BTK(C481S)” for “OCI-LY10”, “8×10^4” for “1×10^5”, “4” for “2.5”

Mouse pharmacokinetics = format: in vivo, ICR mice; conditions: for AUC: read-out: AUC
Protocol: ICR mice weighing 18-22 g were randomized into groups of 9 after 3-5 days of acclimatization and then intragastrically given the test compound solution at a dose of 10 mg/kg. Plasma samples to be tested were prepared by taking blood from the orbit at time points of 15 min, 30 min, 1 h, 2 h, 3 h, 4 h, 6 h, 8 h, 10 h, and 24 h. 20 μL of each plasma sample to be detected and a standard curve sample were taken, and an acetonitrile solution containing an internal standard was added. […] Pharmacokinetic parameters were fitted using a non-compartmental model (see Table 5).

[1] = test system: OCI-LY10-BTK(C481S) cells; experiment: Inhibitory activity on OCI-LY10-BTK(C481S) cell proliferation (CCK-8); format: cell-based; conditions: 72 h incubation, IC50 per method, unit inferred
Protocol: OCI-LY10(C481S) cells in the logarithmic growth phase were collected and added to a centrifuge tube, adjusted to a cell density of 5×10^4 cells/mL, and seeded in a 96-well plate (100 μL/well). Meanwhile, compounds were added using a nanoliter pipettor such that the final concentrations of the compounds were 5000 nM-0.31 nM; the addition was performed in duplicate, and meanwhile, a control was set. After another 72 h of incubation in the cell incubator, the detection reagent CCK-8 (manufacturer: Dojindo Laboratories, Beijing; 10 μL/well) was added. After 3 h of incubation in the cell incubator, absorbance values were detected at 450 nm using a PerkinElmer Envision microplate reader, the four-parameter analysis was performed, the dose-response curves were fit, and IC50 was calculated.

[2] = Homo sapiens, OCI-Ly10, 72 h incubation
[3] = ICR, mouse, plasma, iv, 1 mg/kg, Mouse i.v. 1 mpk
[4] = ICR, mouse, plasma, po, 10 mg/kg, Mouse i.g. 10 mpk

Chain of BTK (Q06187 whole entry): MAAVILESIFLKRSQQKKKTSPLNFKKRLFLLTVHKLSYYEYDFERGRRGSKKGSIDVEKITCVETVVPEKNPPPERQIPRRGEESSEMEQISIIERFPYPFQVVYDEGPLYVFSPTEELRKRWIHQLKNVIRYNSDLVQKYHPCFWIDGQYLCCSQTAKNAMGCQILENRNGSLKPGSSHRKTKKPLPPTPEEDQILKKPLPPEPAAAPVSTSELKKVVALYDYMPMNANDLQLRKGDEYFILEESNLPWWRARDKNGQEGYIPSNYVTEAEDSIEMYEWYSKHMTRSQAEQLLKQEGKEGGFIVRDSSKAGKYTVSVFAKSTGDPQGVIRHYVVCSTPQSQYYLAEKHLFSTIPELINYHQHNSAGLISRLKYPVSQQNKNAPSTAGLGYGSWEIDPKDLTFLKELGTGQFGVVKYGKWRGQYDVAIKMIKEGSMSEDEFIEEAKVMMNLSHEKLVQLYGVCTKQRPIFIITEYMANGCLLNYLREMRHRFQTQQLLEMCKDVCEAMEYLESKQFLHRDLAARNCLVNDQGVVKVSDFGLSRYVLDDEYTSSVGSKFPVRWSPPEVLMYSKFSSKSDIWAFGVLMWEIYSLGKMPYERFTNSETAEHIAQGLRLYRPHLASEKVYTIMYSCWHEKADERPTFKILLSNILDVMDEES

`CN1CCN([C@@H]2CCCN(c3cnc(C(N)=O)c(Nc4ccc(C5CCN(CC6CN(c7ccc8c(C9CCC(=O)NC9=O)noc8c7)C6)CC5)cc4)n3)C2)C1=O` (stereo partly drawn) [Compound 9] showed a DC50 (BTK) of under 0.098 nM, a Dmax (BTK) of 99% and an IC50 (OCI-LY10 cells; [2]) of under 0.31 nM. It also gave an IC50 (TMD8-BTK(C481S) cells; 72 h) of 1.2 nM, a clearance (Mouse pharmacokinetics; [3]) of 5.52 mL/min/kg and a half-life (Mouse pharmacokinetics; [3]) of 1.5 h. The AUC (Mouse pharmacokinetics; [3]) was 2970 ng·h/mL, the half-life (Mouse pharmacokinetics; [4]) was 2.6 h and the AUC (Mouse pharmacokinetics; [4]) was 13700 ng·h/mL. It also gave a Cmax (Mouse pharmacokinetics; ICR, mouse, plasma, po, 10 mg/kg, Mouse i.g. 10 mpk, read-out: Cmax) of 1390 ng/mL and an F (Mouse pharmacokinetics; Mouse i.g. 10 mpk) of 46.10%.
In the case of `CN1CCN([C@@H]2CCCN(c3cnc(C(N)=O)c(Nc4ccc(C5CCN(C[C@@H]6CCC(n7ccc8c9c(C%10CCC(=O)NC%10=O)noc9ccc87)C6)CC5)cc4)n3)C2)C1=O` (stereo partly drawn) [Compound 15], the DC50 (BTK) is reported as under 0.098 nM, the “BTK degradation in OCI-LY10 cells Dmax” value (BTK) is reported as 100% and the IC50 (OCI-LY10 cells; 72 h incubation) is reported as under 0.31 nM. For the same compound, the IC50 [1] was under 0.31 nM.
Work on `CN1CCN([C@@H]2CCCN(c3cnc(C(N)=O)c(Nc4ccc(C5CCN(C6Cc7ccc8c(C9CCC(=O)NC9=O)noc8c7C6)CC5)cc4)n3)C2)C1=O` (stereo partly drawn) [Compound 87] yielded a Dmax (BTK) of over 90%, an IC50 (OCI-LY10 cells; [2]) of under 0.31 nM and an IC50 (TMD8-BTK(C481S) cells) of 11 nM.
With `CN1CCN([C@@H]2CCCN(c3cnc(C(N)=O)c(Nc4ccc(C5CCC6(CC5)CN(CC5Cc7ccc8c(C9CCC(=O)NC9=O)noc8c7C5)C6)cc4)n3)C2)C1=O` (stereo partly drawn) [Compound 53] the DC50 (BTK) was under 0.098 nM, the Dmax (BTK) was 96% and the IC50 (OCI-LY10 cells; [2]) was under 0.31 nM. It also gave an IC50 (TMD8-BTK(C481S) cells) of 2.8 nM.
For `CN1CCN([C@@H]2CCCN(c3cnc(C(N)=O)c(Nc4ccc5c(c4)CN(CC4Cc6ccc7c(C8CCC(=O)NC8=O)noc7c6C4)C5)n3)C2)C1=O` (stereo partly drawn) [Compound 44], the Dmax (BTK) was over 90% and the IC50 ([1]; 72 h) was 0.56 nM.
`CN1CCN([C@@H]2CCCN(c3cnc(C(N)=O)c(Nc4ccc(N5CCC(N6CCc7c(ccc8c(C9CCC(=O)NC9=O)noc78)C6)CC5)cc4)n3)C2)C1=O` (stereo partly drawn) [Compound 35] showed a Dmax (BTK) of over 90%, an IC50 (OCI-LY10 cells; [2]) of under 0.31 nM and an IC50 ([1]; 72 h) of 0.12 nM.
For `CN1CCN([C@@H]2CCCN(c3cnc(C(N)=O)c(Nc4ccc(C5CCN([C@H]6C[C@@H](n7ccc8c9c(C%10CCC(=O)NC%10=O)noc9ccc87)C6)CC5)cc4)n3)C2)C1=O` (stereo partly drawn) [Compound 100], the Dmax (BTK) was over 90%, the IC50 (OCI-LY10 cells; [2]) was under 0.31 nM and the IC50 (TMD8-BTK(C481S) cells; 72 h) was 0.57 nM.
For `CN1CCN([C@@H]2CCCN(c3cnc(C(N)=O)c(Nc4ccc(C5CCN(C[C@H]6CCC(c7ccc8c(C9CCC(=O)NC9=O)noc8c7)C6)CC5)cc4)n3)C2)C1=O` (stereo partly drawn) [Compound 6], the DC50 (BTK) was under 0.098 nM, the Dmax (BTK) was 99% and the IC50 (OCI-LY10 cells; [2]) was under 0.31 nM. It also gave an IC50 (TMD8-BTK(C481S) cells; 72 h) of 27 nM.
Compound `CN1CCN([C@@H]2CCCN(c3cnc(C(N)=O)c(Nc4ccc(C5CCC6(CC5)CN(CC5CN(c7ccc8c(C9CCC(=O)NC9=O)noc8c7)C5)C6)cc4)n3)C2)C1=O` (stereo partly drawn) [Compound 11] has a DC50 (BTK) of under 0.098 nM, a Dmax (BTK) of 99% and an IC50 (OCI-LY10 cells; [2]) of under 0.31 nM. It also gave an IC50 (TMD8-BTK(C481S) cells; 72 h) of 14 nM.
With `CN1CCN([C@@H]2CCCN(c3cnc(C(N)=O)c(Nc4ccc5c(c4)CN(C4CN(CC6Cc7ccc8c(C9CCC(=O)NC9=O)noc8c7C6)C4)C5)n3)C2)C1=O` (stereo partly drawn) [Compound 47] the “BTK degradation in OCI-LY10 cells Dmax” value (BTK) was over 90% and the IC50 [1] was 0.62 nM.
For `CN1CCN([C@@H]2CCCN(c3cnc(C(N)=O)c(Nc4ccc(C5CC6CCCC(C5)N6CC5Cc6ccc7c(C8CCC(=O)NC8=O)noc7c6C5)cc4)n3)C2)C1=O` (stereo partly drawn) [Compound 81], the Dmax (BTK) was over 90%, the IC50 (OCI-LY10 cells; [2]) was under 0.31 nM and the IC50 (TMD8-BTK(C481S) cells; 72 h) was 11 nM.
`CN1CCN([C@@H]2CCCN(c3cnc(C(N)=O)c(Nc4ccc5c(c4)CN(C4CN(CC6Cc7ccc8c(C9CCC(=O)NC9=O)noc8c7C6)C4)C5)n3)C2)C1=O` (stereo partly drawn) [Compound 46] showed a Dmax (BTK) of over 90% and an IC50 ([1]; 72 h) of 0.66 nM.
